Source: patent publication US20070049564A1 (Wyeth, priority 2005, published 2007)
Values after ≈ are worked out from the molar mass of the structure shown. Like-named read-outs stand apart in the source and are kept apart here.

Tests used:
E. faecalis GC 2265 = experiment: MIC, broth microdilution; conditions: Enterococcus faecalis
E. coli = experiment: Range of MIC for E. coli strains; conditions: Escherichia coli, 20 h, read-out: Range of MIC, E. coli (Mouse Serum)
E. coli GC 2231 = experiment: MIC, broth microdilution; conditions: Escherichia coli
E. coli GC 3226 = experiment: MIC, broth microdilution; conditions: Escherichia coli
S. typhimurium GC 2172 = experiment: MIC, broth microdilution; conditions: Salmonella enterica, TYPHIMURIUM
E. coli GC 4560 = experiment: MIC, broth microdilution; conditions: Escherichia coli
E. faecalis GC 2267 = experiment: MIC, broth microdilution; conditions: Enterococcus faecalis
E. faecium GC 2243 = experiment: MIC, broth microdilution; conditions: Enterococcus faecium
E. coli GC 2272 = experiment: MIC, broth microdilution; conditions: Escherichia coli
S. aureus GC 4536 = experiment: MIC, broth microdilution; conditions: Staphylococcus aureus
S. pneumoniae* GC 4465 = experiment: MIC, broth microdilution; conditions: Streptococcus pneumoniae
S. agalactiae GC 4564 = experiment: MIC, broth microdilution; conditions: Streptococcus agalactiae
S. aureus GC 6469 = experiment: MIC, broth microdilution; conditions: Staphylococcus aureus
E. faecalis GC 4555 = experiment: MIC, broth microdilution; conditions: Enterococcus faecalis
Procedure: (§1) Antimicrobial susceptibility testing. The in vitro activities of the antibiotics are determined by the broth microdilution method as recommended by the National Committee for Clinical Laboratory Standards (NCCLS) (1). Mueller-Hinton II broth (MHBII)(BBL Cockeysville, Md.) is the medium employed in the testing procedures. Microtiter plates containing serial dilutions of each antimicrobial agent are inoculated with each organism to yield the appropriate density (10^5 CFU/ml) in a 100 μl final volume. The plates are incubated for 18-22 hours at 35° C. in ambient air.
(§2) Representative compounds were first incubated in mouse serum for an hour prior to the in vitro testing against a panel of selected gram-positive and gram-negative bacteria strains. All compounds were also pre-incubated in water for an hour prior to testing as control. Representative compounds of Formula I were incubated in human serum prior to MIC determination.

S. aureus GC 6466 = experiment: MIC, broth microdilution; conditions: Staphylococcus aureus
E. coli GC 6465 = experiment: MIC, broth microdilution; conditions: Escherichia coli
S. aureus GC 6467 = experiment: MIC, broth microdilution; conditions: Staphylococcus aureus
E. coli GC 2232 = experiment: MIC, broth microdilution; conditions: Escherichia coli
Procedure: as §1, §2

E. coli GC 2203 = experiment: MIC, broth microdilution; conditions: Escherichia coli
Staph. = experiment: Range of MIC for Staph. strains, including MRSA; conditions: Staphylococcus aureus
[1] = read-out: MINIMAL INHIBITORY CONCENTRATION MIC, Human Serum
[2] = read-out: MINIMAL INHIBITORY CONCENTRATION MIC, Mouse Serum
[3] = read-out: MINIMAL INHIBITORY CONCENTRATION MIC, Water

CCCCCCC(=O)OCOC(=O)N(CC(=O)Nc1cc(N(C)C)c2c(c1O)C(=O)C1=C(O)[C@]3(O)C(=O)C(C(N)=O)=C(O)[C@@H](N(C)C)[C@@H]3C[C@@H]1C2)C(C)(C)C [Example 48, ({[(2-{[(5aR,6aS,7S,10aS)-9-(aminocarbonyl)-4,7-bis(dimethylamino)-1,8,10a,11-tetrahydroxy-10,12-dioxo-5,5a,6,6a,7,10,10a,12-octahydrotetracen-2-yl]amino}-2-oxoethyl)(tert-butyl)amino]carbonyl}oxy)methyl heptanoate]
MIC (E. faecalis GC 2265; GC2265, read-out: MINIMAL INHIBITORY CONCENTRATION MIC, Human Serum): 1 µg/mL (≈ 1.3 µM)
MIC (E. faecalis GC 2265; GC2265, read-out: MINIMAL INHIBITORY CONCENTRATION MIC, Mouse Serum): 0.5 µg/mL (≈ 0.648 µM)
MIC (E. faecalis GC 2265; GC2265, read-out: MINIMAL INHIBITORY CONCENTRATION MIC, Water): 2 µg/mL (≈ 2.59 µM)
MIC (E. coli): 0.25 to 2 µg/mL (≈ 0.324 to 2.59 µM)
MIC (E. coli GC 2231; GC2231, read-out: MINIMAL INHIBITORY CONCENTRATION MIC, Human Serum): 16 µg/mL (≈ 20.7 µM)
MIC (E. coli GC 2231; GC2231, read-out: MINIMAL INHIBITORY CONCENTRATION MIC, Mouse Serum): 0.5 µg/mL (≈ 0.648 µM)
MIC (E. coli GC 2231; GC2231, read-out: MINIMAL INHIBITORY CONCENTRATION MIC, Water): 64 µg/mL (≈ 82.9 µM)
MIC (E. coli GC 3226; GC3226, read-out: MINIMAL INHIBITORY CONCENTRATION MIC, Human Serum): 32 µg/mL (≈ 41.5 µM)
MIC (E. coli GC 3226; GC3226, read-out: MINIMAL INHIBITORY CONCENTRATION MIC, Mouse Serum): 0.5 µg/mL (≈ 0.648 µM)
MIC (E. coli GC 3226; GC3226, read-out: MINIMAL INHIBITORY CONCENTRATION MIC, Water): > 64 µg/mL
MIC (S. typhimurium GC 2172; [1]): > 64 µg/mL
MIC (S. typhimurium GC 2172; [2]): 4 µg/mL (≈ 5.18 µM)
MIC (S. typhimurium GC 2172; [3]): > 64 µg/mL
MIC (E. coli GC 4560; GC4560, read-out: MINIMAL INHIBITORY CONCENTRATION MIC, Human Serum): 1 µg/mL (≈ 1.3 µM)
MIC (E. coli GC 4560; GC4560, read-out: MINIMAL INHIBITORY CONCENTRATION MIC, Mouse Serum): 0.12 µg/mL (≈ 0.155 µM)
MIC (E. coli GC 4560; GC4560, read-out: MINIMAL INHIBITORY CONCENTRATION MIC, Water): 2 µg/mL (≈ 2.59 µM)
MIC (E. faecalis GC 2267; GC2267, read-out: MINIMAL INHIBITORY CONCENTRATION MIC, Human Serum): 1 µg/mL (≈ 1.3 µM)
MIC (E. faecalis GC 2267; GC2267, read-out: MINIMAL INHIBITORY CONCENTRATION MIC, Mouse Serum): 0.5 µg/mL (≈ 0.648 µM)
MIC (E. faecalis GC 2267; GC2267, read-out: MINIMAL INHIBITORY CONCENTRATION MIC, Water): 2 µg/mL (≈ 2.59 µM)
MIC (E. faecium GC 2243; GC2243, read-out: MINIMAL INHIBITORY CONCENTRATION MIC, Human Serum): 0.25 µg/mL (≈ 0.324 µM)
MIC (E. faecium GC 2243; GC2243, read-out: MINIMAL INHIBITORY CONCENTRATION MIC, Mouse Serum): 0.25 µg/mL (≈ 0.324 µM)
MIC (E. faecium GC 2243; GC2243, read-out: MINIMAL INHIBITORY CONCENTRATION MIC, Water): 0.5 µg/mL (≈ 0.648 µM)
MIC (E. coli GC 2272; GC2272, read-out: MINIMAL INHIBITORY CONCENTRATION MIC, Human Serum): 8 µg/mL (≈ 10.4 µM)
MIC (E. coli GC 2272; GC2272, read-out: MINIMAL INHIBITORY CONCENTRATION MIC, Mouse Serum): 0.25 µg/mL (≈ 0.324 µM)
MIC (E. coli GC 2272; GC2272, read-out: MINIMAL INHIBITORY CONCENTRATION MIC, Water): 64 µg/mL (≈ 82.9 µM)
MIC (S. aureus GC 4536; GC4536, read-out: MINIMAL INHIBITORY CONCENTRATION MIC, Human Serum): 0.25 µg/mL (≈ 0.324 µM)
MIC (S. aureus GC 4536; GC4536, read-out: MINIMAL INHIBITORY CONCENTRATION MIC, Mouse Serum): 0.25 µg/mL (≈ 0.324 µM)
MIC (S. aureus GC 4536; GC4536, read-out: MINIMAL INHIBITORY CONCENTRATION MIC, Water): 0.25 µg/mL (≈ 0.324 µM)
MIC (S. pneumoniae* GC 4465; [1]): 0.12 µg/mL (≈ 0.155 µM)
MIC (S. pneumoniae* GC 4465; [2]): 0.12 µg/mL (≈ 0.155 µM)
MIC (S. pneumoniae* GC 4465; [3]): 0.12 µg/mL (≈ 0.155 µM)
MIC (S. agalactiae GC 4564; GC4564, read-out: MINIMAL INHIBITORY CONCENTRATION MIC, Human Serum): 0.12 µg/mL (≈ 0.155 µM)
MIC (S. agalactiae GC 4564; GC4564, read-out: MINIMAL INHIBITORY CONCENTRATION MIC, Mouse Serum): 0.12 µg/mL (≈ 0.155 µM)
MIC (S. agalactiae GC 4564; GC4564, read-out: MINIMAL INHIBITORY CONCENTRATION MIC, Water): 0.12 µg/mL (≈ 0.155 µM)
MIC (S. aureus GC 6469; GC6469, read-out: MINIMAL INHIBITORY CONCENTRATION MIC, Human Serum): 1 µg/mL (≈ 1.3 µM)
MIC (S. aureus GC 6469; GC6469, read-out: MINIMAL INHIBITORY CONCENTRATION MIC, Mouse Serum): 0.5 µg/mL (≈ 0.648 µM)
MIC (S. aureus GC 6469; GC6469, read-out: MINIMAL INHIBITORY CONCENTRATION MIC, Water): 1 µg/mL (≈ 1.3 µM)
MIC (E. faecalis GC 4555; GC4555, read-out: MINIMAL INHIBITORY CONCENTRATION MIC, Human Serum): 4 µg/mL (≈ 5.18 µM)
MIC (E. faecalis GC 4555; GC4555, read-out: MINIMAL INHIBITORY CONCENTRATION MIC, Mouse Serum): 0.12 µg/mL (≈ 0.155 µM)
MIC (E. faecalis GC 4555; GC4555, read-out: MINIMAL INHIBITORY CONCENTRATION MIC, Water): 2 µg/mL (≈ 2.59 µM)
MIC (S. aureus GC 6466; GC6466, read-out: MINIMAL INHIBITORY CONCENTRATION MIC, Human Serum): 0.12 µg/mL (≈ 0.155 µM)
MIC (S. aureus GC 6466; GC6466, read-out: MINIMAL INHIBITORY CONCENTRATION MIC, Mouse Serum): 0.12 µg/mL (≈ 0.155 µM)
MIC (S. aureus GC 6466; GC6466, read-out: MINIMAL INHIBITORY CONCENTRATION MIC, Water): 0.12 µg/mL (≈ 0.155 µM)
MIC (E. coli GC 6465; GC6465, read-out: MINIMAL INHIBITORY CONCENTRATION MIC, Human Serum): > 64 µg/mL
MIC (E. coli GC 6465; GC6465, read-out: MINIMAL INHIBITORY CONCENTRATION MIC, Mouse Serum): 2 µg/mL (≈ 2.59 µM)
MIC (E. coli GC 6465; GC6465, read-out: MINIMAL INHIBITORY CONCENTRATION MIC, Water): > 64 µg/mL
MIC (S. aureus GC 6467; GC6467, read-out: MINIMAL INHIBITORY CONCENTRATION MIC, Human Serum): 0.5 µg/mL (≈ 0.648 µM)
MIC (S. aureus GC 6467; GC6467, read-out: MINIMAL INHIBITORY CONCENTRATION MIC, Mouse Serum): 1 µg/mL (≈ 1.3 µM)
MIC (S. aureus GC 6467; GC6467, read-out: MINIMAL INHIBITORY CONCENTRATION MIC, Water): 2 µg/mL (≈ 2.59 µM)
MIC (E. coli GC 2232; GC2232, read-out: MINIMAL INHIBITORY CONCENTRATION MIC, Human Serum): 16 µg/mL (≈ 20.7 µM)
MIC (E. coli GC 2232; GC2232, read-out: MINIMAL INHIBITORY CONCENTRATION MIC, Mouse Serum): 0.25 µg/mL (≈ 0.324 µM)
MIC (E. coli GC 2232; GC2232, read-out: MINIMAL INHIBITORY CONCENTRATION MIC, Water): 64 µg/mL (≈ 82.9 µM)
MIC (E. coli GC 2203; GC2203, read-out: MINIMAL INHIBITORY CONCENTRATION MIC, Human Serum): 16 µg/mL (≈ 20.7 µM)
MIC (E. coli GC 2203; GC2203, read-out: MINIMAL INHIBITORY CONCENTRATION MIC, Mouse Serum): 0.25 µg/mL (≈ 0.324 µM)
MIC (E. coli GC 2203; GC2203, read-out: MINIMAL INHIBITORY CONCENTRATION MIC, Water): 64 µg/mL (≈ 82.9 µM)
MIC (Staph.; MRSA, read-out: Range of MIC, Staph (Mouse Serum)): 0.12 to 2 µg/mL (≈ 0.155 to 2.59 µM)
MIC (Staph.; MRSA, read-out: Range of MIC, Staph (Water)): 0.12 to 2 µg/mL (≈ 0.155 to 2.59 µM)
MIC (Staph.; read-out: Minimum inhibitory concentration (MIC), Staph (Human Serum)): 0.12 to 2 µg/mL (≈ 0.155 to 2.59 µM)
MIC (Staph.; read-out: Minimum inhibitory concentration (MIC), Staph (Water)): 0.12 to 2 µg/mL (≈ 0.155 to 2.59 µM)
